Data on two compounds can be found in BindingDB's records for doi:10.1021/jm00011a005 (University of Minnesota, 1995).

Where only a bound is given, the exact number is not on record here.

For the test, the target named is Aldehyde dehydrogenase (Saccharomyces cerevisiae). Briefly: In vitro inhibition against yeast Aldehyde dehydrogenase.

With `CC(=O)ON1C(=O)c2ccccc2S1(=O)=O` [Acetic acid 1,1,3-trioxo-1,3-dihydro-1lambda*6*-benzo[d]isothiazol-2-yl ester], the IC50 is 240 µM.

For `O=C1c2ccccc2S(=O)(=O)N1O` [2-Hydroxy-1,1-dioxo-1,2-dihydro-1lambda*6*-benzo[d]isothiazol-3-one], the IC50 was more than 1000 µM.
